Test results published in US7667044B2, “Compounds for the treatment of neurological disorders” (Probiodrug AG, priority 2003, dated 2010).

The compounds below were run on human glial U-343 cells (assay: IL-6 ELISA, basal secretion of IL-6 into conditioned medium). Details: inhibitor 20 μM, 24 hours, serum-free medium, untreated = 100%, read-out: Extracellular IL-6 concentration, % of untreated cells.
Format: cell-based
Method: To analyze basal secretion of IL-6, human glial U-343 cells were cultured in 6 well plates (1.5×10^6 cells/well, Greiner) and treated with specific PEP inhibitors as indicated (20 μM each) for 24 hours in serum-free D-MEM medium (invitrogen). Aliquots of 40 μl conditioned medium were used to quantify the amount of secreted IL-6 by an human-specific IL-6 ELISA (Biosource) following the manufacturer's instructions. All data were obtained in quadruplicate. For the calculation of the IL-6 concentration in the cell culture medium after PEP-inhibitor treatment, the basal IL-6 concentration of the cell culture medium of untreated cell samples was set to 100%. The results of the measurement of the IL-6 concentration with PEP-inhibitor treated cells are presented as % of the untreated cell samples.

Structure (SMILES) | activity at 20 µM
O=C(O)C[C@H](NC(=O)OCc1ccccc1)C(=O)N1CCC[C@H]1C(=O)c1nc2ccccc2s1 [Example 6, 2-[Cbz-L-Asp-L-Pro]Benzothiazole] | 58%
NCCCC[C@H](NC(=O)OCc1ccccc1)C(=O)N1CCC[C@H]1C(=O)c1nc2ccccc2s1 [Example 8, 2-[Cbz-L-Lys-L-Pro]Benzothiazole] | 160%
C=CCOC(=O)N[C@@H](Cc1ccccc1)C(=O)N1CCC[C@H]1C(=O)c1nc2ccccc2s1 [Example 7, 2-[Aloc-L-Phe-L-Pro]Benzothiazole] | 17%
C[C@@H](NC(=O)OCc1ccccc1)C(=O)N1CCC[C@H]1C(=O)c1nc2ccccc2s1 [Example 2, 2-[Cbz-L-Ala-L-Pro]Benzothiazole] | 20.1%
O=C(N[C@@H](Cc1ccccc1)C(=O)N1CCC[C@H]1C(=O)c1nccs1)OCc1ccccc1 [Example 4, 2-[Cbz-L-Phe-L-Pro]Thiazole] | 14.6%
N=C(N)NCCC[C@H](NC(=O)OCc1ccccc1)C(=O)N1CCC[C@H]1C(=O)c1nc2ccccc2s1 [Example 5, 2-[Cbz-L-Arg-L-Pro]Benzothiazole] | 109%
CC(C)(C)OC(=O)N[C@@H](Cc1ccccc1)C(=O)N1CCC[C@H]1C(=O)c1nc2ccccc2s1 [Example 9, 2-[Boc-L-Phe-L-Pro]Benzothiazole] | 33.1%
O=C(N[C@@H](Cc1ccccc1)C(=O)N1CCC[C@H]1C(=O)c1ccc[nH]1)OCc1ccccc1 [Example 11] | 52.1%
C[C@H](NC(=O)OCc1ccccc1)C(=O)N1CCC[C@H]1C(=O)c1nccs1 [Example 10, 2-[Cbz-L-Ala-L-Pro]Thiazole] | 66%
O=C(N[C@H](Cc1ccccc1)C(=O)N1CCCC1C(=O)c1nc2ccccc2s1)OCc1ccccc1 (stereo partly drawn) [Example 1, 2-[Cbz-L-Phe-L-Pro]Benzothiazole] | 14.3%
C[C@H](NC(=O)[C@@H](Cc1ccccc1)NC(=O)OCc1ccccc1)C(=O)c1nc2ccccc2s1 [Example 3, 2-[Cbz-L-Phe-L-Ala]Benzothiazole] | 35.2%

The compounds below were run on human neuroblastoma SH-SY5Y cells (assay: β-Amyloid ELISA, secreted β-amyloid peptides in conditioned medium). Details: Aβ 1-42 (FIG. 2), inhibitor 20 μM, 24 hours, untreated = 100%, read-out: Extracellular Aβ-concentration, % of control.
Format: cell-based
Method: The human glioma cell line, U-343 and the human neuroblastoma cell line, SH-SY5Y were maintained in Dulbecco's modified Eagle's medium (DMEM) containing 10% fetal bovine serum (Gibco BRL, Karlsruhe, Germany) and incubated at 37° C. in a 5% CO2 atmosphere. Culture media contained in general 60 μg/ml gentamycin (Gibco BRL, Karlsruhe, Germany).
To quantify intracellular and extracellular concentrations of β-amyloid peptides, 1-40 and 142, U-343 and SH-SY5Y cells were cultured in 6 well plates (1.5×10^6 cells/well) and treated with specific PEP inhibitors (20 μM each) for 24 hours. For quantitation of secreted β-amyloid peptides the conditioned medium was collected and concentrated by lyophylisation. Likewise, after determination of the cell numbers/well (casy cell counter I, Schärfe System, Reutlingen, Germany), cells were lyzed with cell extraction buffer (Biosource, Solingen, Germany) according to the manufacturer's protocol. The protein concentration was determined by the method of Bradford (1976). Aliquots of 100 μl were used to quantify β-amyloid peptides 1-40 and 1-42 in quadruplicate by ELISA, (IBL, Hamburg, Germany) following the manufacturer's instructions. All obtained intracellular and extracellular concentrations were normalized to cell numbers and protein concentration, respectively.
For the calculation of the concentration of β-amyloid peptides 1-40 and 1-42 in the cell culture medium after PEP-inhibitor treatment, the basal concentration of β-amyloid peptides 1-40 and 1-42 in the cell culture medium of untreated cell samples was set to 100%. The results of the measurement of the concentration of β-amyloid peptides 1-40 and 1-42 with PEP-inhibitor treated cells are presented as % of the untreated cell samples.

Structure (SMILES) | activity at 20 µM
O=C(O)C[C@H](NC(=O)OCc1ccccc1)C(=O)N1CCC[C@H]1C(=O)c1nc2ccccc2s1 [Example 6, 2-[Cbz-L-Asp-L-Pro]Benzothiazole] | 96.2%
NCCCC[C@H](NC(=O)OCc1ccccc1)C(=O)N1CCC[C@H]1C(=O)c1nc2ccccc2s1 [Example 8, 2-[Cbz-L-Lys-L-Pro]Benzothiazole] | 87.5%
C=CCOC(=O)N[C@@H](Cc1ccccc1)C(=O)N1CCC[C@H]1C(=O)c1nc2ccccc2s1 [Example 7, 2-[Aloc-L-Phe-L-Pro]Benzothiazole] | 528%
C[C@@H](NC(=O)OCc1ccccc1)C(=O)N1CCC[C@H]1C(=O)c1nc2ccccc2s1 [Example 2, 2-[Cbz-L-Ala-L-Pro]Benzothiazole] | 123%
O=C(N[C@@H](Cc1ccccc1)C(=O)N1CCC[C@H]1C(=O)c1nccs1)OCc1ccccc1 [Example 4, 2-[Cbz-L-Phe-L-Pro]Thiazole] | 519%
N=C(N)NCCC[C@H](NC(=O)OCc1ccccc1)C(=O)N1CCC[C@H]1C(=O)c1nc2ccccc2s1 [Example 5, 2-[Cbz-L-Arg-L-Pro]Benzothiazole] | 94%
CC(C)(C)OC(=O)N[C@@H](Cc1ccccc1)C(=O)N1CCC[C@H]1C(=O)c1nc2ccccc2s1 [Example 9, 2-[Boc-L-Phe-L-Pro]Benzothiazole] | 368%
O=C(N[C@@H](Cc1ccccc1)C(=O)N1CCC[C@H]1C(=O)c1ccc[nH]1)OCc1ccccc1 [Example 11] | 340%
C[C@H](NC(=O)OCc1ccccc1)C(=O)N1CCC[C@H]1C(=O)c1nccs1 [Example 10, 2-[Cbz-L-Ala-L-Pro]Thiazole] | 157%
O=C(N[C@H](Cc1ccccc1)C(=O)N1CCCC1C(=O)c1nc2ccccc2s1)OCc1ccccc1 (stereo partly drawn) [Example 1, 2-[Cbz-L-Phe-L-Pro]Benzothiazole] | 447%
C[C@H](NC(=O)[C@@H](Cc1ccccc1)NC(=O)OCc1ccccc1)C(=O)c1nc2ccccc2s1 [Example 3, 2-[Cbz-L-Phe-L-Ala]Benzothiazole] | 546%

These compounds were tested against T1, Recombinant human prolyl oligopeptidase (Homo sapiens, UniProt P48147) (assay: Determination of IC50- and Ki-values of PEP-inhibitors, chromogenic substrate Cbz-Gly-L-Pro-pNA). Details: 4 substrate and 7 inhibitor concentrations, competitive inhibition fit, pH 7.6, 30° C.
T1 construct: made in house; host or cells: E. coli
T1 sequence (P48147 1-710): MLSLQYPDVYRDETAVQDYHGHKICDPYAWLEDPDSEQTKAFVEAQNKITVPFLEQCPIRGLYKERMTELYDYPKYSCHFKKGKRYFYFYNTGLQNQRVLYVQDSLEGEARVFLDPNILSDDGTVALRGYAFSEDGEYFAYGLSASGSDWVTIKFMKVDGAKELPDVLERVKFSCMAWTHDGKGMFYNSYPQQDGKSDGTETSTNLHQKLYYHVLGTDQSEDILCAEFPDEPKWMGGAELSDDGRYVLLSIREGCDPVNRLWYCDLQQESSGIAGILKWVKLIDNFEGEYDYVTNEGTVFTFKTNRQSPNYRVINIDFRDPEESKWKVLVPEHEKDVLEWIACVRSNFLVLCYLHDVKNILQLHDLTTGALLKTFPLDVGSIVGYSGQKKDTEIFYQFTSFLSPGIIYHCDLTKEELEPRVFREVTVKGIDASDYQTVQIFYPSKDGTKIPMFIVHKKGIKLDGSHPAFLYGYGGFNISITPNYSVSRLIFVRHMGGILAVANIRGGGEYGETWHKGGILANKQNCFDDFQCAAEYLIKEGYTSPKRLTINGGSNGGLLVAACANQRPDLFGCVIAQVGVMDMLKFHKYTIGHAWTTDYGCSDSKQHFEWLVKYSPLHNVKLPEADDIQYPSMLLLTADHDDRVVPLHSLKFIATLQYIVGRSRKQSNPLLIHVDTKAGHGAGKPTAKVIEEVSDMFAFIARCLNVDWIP
Format: biochemical
Method: Recombinant human prolyl oligopeptidase was used for measurement. Recombinant expression was performed in E. coli under standard conditions as described elsewhere in the state of the art.
For activity measurements the chromogenic substrate Cbz-Gly-L-Pro-pNA was used in HEPES buffer pH 7.6 containing 50 mM HEPES, 200 mM NaCl, 1 mM EDTA, 1 mM DTT, 0.006% Brij35. Measurements were carried out at 30° C. Release of pNA were monitored continuously at 405 nm.
IC50 values were calculated using non-linear regression to a 4-parameter equation (Prism 4.0, GraphPad).
Calculations were performed by multiple non-linear regression analysis to the equation for competitive inhibition using GraFit 5.0 Software (Erithacus Software).

Ki | Structure (SMILES)
12 nM | O=C(O)C[C@H](NC(=O)OCc1ccccc1)C(=O)N1CCC[C@H]1C(=O)c1nc2ccccc2s1 [Example 6, 2-[Cbz-L-Asp-L-Pro]Benzothiazole]
0.038 nM | NCCCC[C@H](NC(=O)OCc1ccccc1)C(=O)N1CCC[C@H]1C(=O)c1nc2ccccc2s1 [Example 8, 2-[Cbz-L-Lys-L-Pro]Benzothiazole]
8.2 nM | C=CCOC(=O)N[C@@H](Cc1ccccc1)C(=O)N1CCC[C@H]1C(=O)c1nc2ccccc2s1 [Example 7, 2-[Aloc-L-Phe-L-Pro]Benzothiazole]
0.033 nM | C[C@@H](NC(=O)OCc1ccccc1)C(=O)N1CCC[C@H]1C(=O)c1nc2ccccc2s1 [Example 2, 2-[Cbz-L-Ala-L-Pro]Benzothiazole]
6.8 nM | O=C(N[C@@H](Cc1ccccc1)C(=O)N1CCC[C@H]1C(=O)c1nccs1)OCc1ccccc1 [Example 4, 2-[Cbz-L-Phe-L-Pro]Thiazole]
3.2 nM | N=C(N)NCCC[C@H](NC(=O)OCc1ccccc1)C(=O)N1CCC[C@H]1C(=O)c1nc2ccccc2s1 [Example 5, 2-[Cbz-L-Arg-L-Pro]Benzothiazole]
6 nM | CC(C)(C)OC(=O)N[C@@H](Cc1ccccc1)C(=O)N1CCC[C@H]1C(=O)c1nc2ccccc2s1 [Example 9, 2-[Boc-L-Phe-L-Pro]Benzothiazole]
2.9 nM | O=C(N[C@@H](Cc1ccccc1)C(=O)N1CCC[C@H]1C(=O)c1ccc[nH]1)OCc1ccccc1 [Example 11]
2.6 nM | C[C@H](NC(=O)OCc1ccccc1)C(=O)N1CCC[C@H]1C(=O)c1nccs1 [Example 10, 2-[Cbz-L-Ala-L-Pro]Thiazole]
0.057 nM | O=C(N[C@H](Cc1ccccc1)C(=O)N1CCCC1C(=O)c1nc2ccccc2s1)OCc1ccccc1 (stereo partly drawn) [Example 1, 2-[Cbz-L-Phe-L-Pro]Benzothiazole]

Same assay, conditions: substrate 0.15 mM Cbz-Gly-L-Pro-pNA, HEPES buffer pH 7.6, 30° C.

IC50 | Structure (SMILES)
17 nM | O=C(O)C[C@H](NC(=O)OCc1ccccc1)C(=O)N1CCC[C@H]1C(=O)c1nc2ccccc2s1 [Example 6, 2-[Cbz-L-Asp-L-Pro]Benzothiazole]
2 nM | NCCCC[C@H](NC(=O)OCc1ccccc1)C(=O)N1CCC[C@H]1C(=O)c1nc2ccccc2s1 [Example 8, 2-[Cbz-L-Lys-L-Pro]Benzothiazole]
9.7 nM | C=CCOC(=O)N[C@@H](Cc1ccccc1)C(=O)N1CCC[C@H]1C(=O)c1nc2ccccc2s1 [Example 7, 2-[Aloc-L-Phe-L-Pro]Benzothiazole]
0.12 nM | C[C@@H](NC(=O)OCc1ccccc1)C(=O)N1CCC[C@H]1C(=O)c1nc2ccccc2s1 [Example 2, 2-[Cbz-L-Ala-L-Pro]Benzothiazole]
15 nM | O=C(N[C@@H](Cc1ccccc1)C(=O)N1CCC[C@H]1C(=O)c1nccs1)OCc1ccccc1 [Example 4, 2-[Cbz-L-Phe-L-Pro]Thiazole]
5.4 nM | N=C(N)NCCC[C@H](NC(=O)OCc1ccccc1)C(=O)N1CCC[C@H]1C(=O)c1nc2ccccc2s1 [Example 5, 2-[Cbz-L-Arg-L-Pro]Benzothiazole]
29 nM | CC(C)(C)OC(=O)N[C@@H](Cc1ccccc1)C(=O)N1CCC[C@H]1C(=O)c1nc2ccccc2s1 [Example 9, 2-[Boc-L-Phe-L-Pro]Benzothiazole]
7600 nM | O=C(N[C@@H](Cc1ccccc1)C(=O)N1CCC[C@H]1C(=O)c1ccc[nH]1)OCc1ccccc1 [Example 11]
4.3 nM | C[C@H](NC(=O)OCc1ccccc1)C(=O)N1CCC[C@H]1C(=O)c1nccs1 [Example 10, 2-[Cbz-L-Ala-L-Pro]Thiazole]
6 nM | O=C(N[C@H](Cc1ccccc1)C(=O)N1CCCC1C(=O)c1nc2ccccc2s1)OCc1ccccc1 (stereo partly drawn) [Example 1, 2-[Cbz-L-Phe-L-Pro]Benzothiazole]
1400 nM | C[C@H](NC(=O)[C@@H](Cc1ccccc1)NC(=O)OCc1ccccc1)C(=O)c1nc2ccccc2s1 [Example 3, 2-[Cbz-L-Phe-L-Ala]Benzothiazole]
